Test results reported in publication PMC6274026 (Molecules, 2016).
“And” between values parts separate entries of the source, which are not always exact repeats. Equal values may be shown once. Read-outs that look alike come from different tables or passages of the source.

Key:
[1] = tested on: MCF-7; details: for Selectivity index: IC50 MCF-10A / IC50 MCF-7; for percentage of survival: MCF-7, 0.08 µg/mL, 72 h; for IC50: read-out: Cytotoxic activity IC50, MCF-7, 72 h, mean of three independent experiments ± S.D.
[2] = tested on: MDA-MB-231; details: for Selectivity index: IC50 MCF-10A / IC50 MDA-MB-231; for percentage of survival: 72 h; for IC50: read-out: Cytotoxic activity IC50, MDA-MB-231, 72 h, mean of three independent experiments ± S.D.
[3] = tested on: BT-549; details: for percentage of survival: BT-549, 0.08 µg/mL, 72 h; for Selectivity index: IC50 MCF-10A / IC50 BT-549; for IC50: read-out: Cytotoxic activity IC50, BT-549, 72 h, mean of three independent experiments ± S.D.
[4] = tested on: MCF-10A; details: for percentage of survival: 0.08 µg/mL, 72 h
[5] = in vitro; details: human
[6] = tested on: MCF-7; assay: Clonogenicity (recovery) assay, 72 h post-treatment, SRB; details: for percentage of recovery: MCF-7, 0.08 µg/mL, 72 h post-treatment; for effect on proliferation and recovery after treatment: in words
[7] = tested on: MDA-MB-231; assay: as above; details: for percentage of recovery: 72 h post-treatment; for effect on proliferation and recovery after treatment: in words
[8] = tested on: BT-549; assay: as above; details: for percentage of recovery: BT-549, 0.08 µg/mL, 72 h post-treatment; for effect on proliferation and recovery after treatment: in words
[9] = tested on: MCF-10A; assay: as above; details: for percentage of recovery: 0.08 µg/mL, 72 h post-treatment; for effect on proliferation and recovery after treatment: in words
[10] = tested on: MCF-7, MDA-MB-231, BT-549, and MCF-10A; assay: Cytotoxicity, clonogenicity and selectivity over the panel of breast cell lines; type: cell-based, human; details: in words, SI ≥ 10 selective

Structure (SMILES) | Selectivity index [1] | percentage of survival [1] | IC50 [1] | Selectivity index [2] | percentage of survival ([2]; MDA-MB-231, 0.08 µg/mL) | percentage of survival ([2]; MDA-MB-231, 0.4 µg/mL) | IC50 [2] | percentage of survival [3] | Selectivity index [3] | IC50 [3] | percentage of survival [4] | percentage of recovery [6] | effect on proliferation and recovery after treatment ([6]; MCF-7, 10, 2, and 0.4 µg/mL) | percentage of recovery ([7]; MDA-MB-231, 0.08 µg/mL) | percentage of recovery ([7]; MDA-MB-231, 0.4 µg/mL) | effect on proliferation and recovery after treatment ([7]; MDA-MB-231, 10 and 2 µg/mL) | percentage of recovery [8] | effect on proliferation and recovery after treatment ([8]; BT-549, 10, 2, and 0.4 µg/mL) | percentage of recovery ([9]; MCF-10A) | effect on proliferation and recovery after treatment ([9]; MCF-10A, 10, 2, and 0.4 µg/mL) | further results
COc1ccc([C@@H]2c3cc4c(c(OC)c3C[C@H]3COC(=O)[C@@H]32)OCO4)cc1OC [Compound 1, 5′-demethoxy-β-peltatin-A-methylether] | 0.02 | 130% ± 18.55% | 7220 nM and 7200 nM | 0.06 | 96% ± 6.9% | 28% ± 3.1% | 2440 nM and 2400 nM | 82% ± 15.7% | 0.11 | 1260 nM and 1200 nM and 1270 nM | 61% ± 7.9% | 172% ± 24.5% | dose-dependent cytotoxic effect at concentrations of 10, 2, and 0.4 µg/mL, which persisted after removal of the treatment | 184% ± 6.4% | 49% ± 18.6% | inhibited proliferation and blocked recovery | 124% ± 9.7% | dose-dependent cytotoxic effect at concentrations of 10, 2, and 0.4 µg/mL, which persisted after removal of the treatment | 83% ± 3.3% | dose-dependent cytotoxic effect at concentrations of 10, 2, and 0.4 µg/mL, which persisted after removal of the treatment | Potency compared to control POD ([1]; MCF-7, relative to POD): 0.002; Potency compared to control VP-16 ([1]; MCF-7, relative to VP-16): 0.017; Potency compared to control POD ([2]; MDA-MB-231, relative to POD): 0.010; Potency compared to control VP-16 ([2]; MDA-MB-231, relative to VP-16): 0.016; Potency compared to control POD ([3]; BT-549, relative to POD): 0.004; Potency compared to control VP-16 ([3]; BT-549, relative to VP-16): 0.126; IC50 ([4]; read-out: Cytotoxic activity IC50, 72 h, mean of three independent experiments ± S.D.): 137 ± 15 nM; Potency compared to control POD ([4]; relative to POD): 0.144; Potency compared to control VP-16 ([4]; relative to VP-16): 0.341; IC50 at 72 h ([5]; Cytotoxic activity IC50, MCF-10A, 72 h, mean of three independent experiments ± S.D.): 130 nM
COc1cc([C@@H]2c3cc4c(cc3[C@H](O)[C@H]3COC(=O)[C@H]23)OCO4)cc(OC)c1OC [POD, Podophyllotoxin, reference compound] | 1.11 | – | 18 ± 1 nM | 0.81 | – | – | 24 ± 6 nM | – | – | 5 ± 1 nM | – | – | – | – | – | – | – | – | – | – | selectivity in the selectivity analysis [10]: non-selective activity; survival ([4]; even at high concentrations (10, 2, 0.4, 0.08, and 0.016 µg/mL)): about 20%; IC50 at 72 h [5]: 20 ± 8 nM; effect on proliferation and recovery after treatment ([6]; MCF-7, different POD concentrations): arrest of cell proliferation, which persisted even after the toxic agent was removed; effect on proliferation and recovery after treatment ([7]; MDA-MB-231, different POD concentrations): arrest of cell proliferation, which persisted even after the toxic agent was removed; effect on proliferation and recovery after treatment ([8]; BT-549, different POD concentrations): arrest of cell proliferation, which persisted even after the toxic agent was removed; effect on proliferation and recovery after treatment ([9]; MCF-10A, different POD concentrations): arrest of cell proliferation, which persisted even after the toxic agent was removed
COc1cc([C@@H]2c3cc4c(cc3[C@@H](O[C@@H]3O[C@@H]5CO[C@@H](C)O[C@H]5[C@H](O)[C@H]3O)[C@H]3COC(=O)[C@H]23)OCO4)cc(OC)c1O [VP-16, etoposide, reference compound] | 0.38 | 71% ± 20.7% | 124 ± 26 nM | 1.20 | 82% ± 5.6% | 48% ± 2.4% | 38 ± 4 nM | 67% ± 7.5% | 0.29 | 160 ± 10 nM | 46% ± 2.8% | 183% ± 7.4% | did not recover proliferation after treatment | 160% ± 7.4% | 98% ± 16.1% | caused inhibition of proliferation and cell recovery | 101% ± 11.7% | did not recover proliferation after treatment | 79% ± 5.1% | did not recover proliferation after treatment | selectivity in the selectivity analysis [10]: non-selective compound; IC50 at 72 h ([5]; MCF-10A cells, Cytotoxic activity IC50, MCF-10A, 72 h, mean of three independent experiments ± S.D.): 47 ± 9 nM
